Entries after “also recorded” stand apart in the source; their conditions may differ.
Assays:
[1] = system: freshly isolated murine distal total epithelial cells; assay: 3D organoid culture of freshly isolated murine distal total epithelial cells; type: cell-based; conditions: for % colony forming efficiency: freshly isolated murine lung epithelial cells, addition to the culture medium (FIG. 3)
Description: (§1) FIG. 1. Experimental design. Preconditioning of donor cells, including addition of small molecules such as ROCK inhibitor, pifithrin α, or combined together, and generation of organoids.
FIG. 3. […] Addition of the TGF-β inhibitor, SB 431542 to the culture medium increases the % colony forming efficiency of freshly isolated murine lung epithelial cells. Addition of Pifithrin α causes an increase in organoids size, while addition of ROCKi causes an increase in the colony forming efficiency.
FIG. 13. Effect of p53 and ROCKi inhibition on murine freshly isolated distal total epithelial cells in (+SB431542). Addition of both ROCKi and Pifithrin alpha (in presence of SB431542) increases the colony forming efficiency of freshly isolated murine distal total epithelial cells (isolated from the lung without trachea). […] Pifithrin alpha also causes an increase in the size of the organoids (C). […] The drop in mean diameter of the Pifithrin alpha+ROCKi group is likely due to space constraints because of the large number of organoids per well.
Further described herein is a cell culture including a quantity of human stem cells, or stem cell derived cells in a cell culture media including at least one molecule including: a RHO-kinase (ROCK) inhibitor, SMAD inhibitor, and p53 inhibitor. In other embodiments, the RHO-kinase inhibitor is Y27632 and the p53 inhibitor is Pifithrin α. In other embodiments, the stem cells are adult stem cells. In other embodiments, the stem cell derived cells are lung epithelial cells. In various embodiments, the aforementioned inhibitors are at a concentration of 0.1-1 uM, 1-5 uM, 5-10 uM, 10-25 uM, 25-50 uM, or 50 uM or more. In various embodiments, the p53 inhibitor is Pifithrin-alpha. For example, this includes a media formulated as follows: 5 mL FBS, 500 uL ITS (100×), 50 uL Fungizone, 500 uL Pen/Strep (100×), DMEM/F12 up to 50 mL, 5 uL SB431542, Pifithrin-alpha 10 uM, ROCKi (Y-27632 dihydrochloride)—10 uM. Also described herein is a quantity of organoids including cells made by the aforementioned methods. In various embodiments, the organoids include proximal and/or distal cells. In various embodiments, the distal cells are alveolar type II progenitors and/or Scgb1a1 positive club progenitor cells.

distal progenitor cells = assay: Differentiation potential of distal progenitors after 3D organoid culture with inhibitors; type: cell-based; conditions: 14 days with Pifithrin-alpha, ROCKi and SB431542, then 7 days without inhibitors, PDPN and SPC staining
Experimental: FIG. 16. […] Distal progenitor cells were cultured as 3D organoids for 14 days in presence of Pifithrin-alpha, ROCKi and SB431542 followed by culture for 7 days in media without all three inhibitors. […] DAPI (blue) is a nuclear stain.
(§2) Distal progenitor cells were cultured as 3D organoids for 14 days in presence of Pifithrin-alpha, ROCKi and SB431542 followed by culture for 7 days in media without all three inhibitors. […] Addition of ROCKi (in presence of SB431542) increases the colony forming efficiency of freshly isolated club cells (regional stem cells which maintain certain cell types in the bronchiolar epithelium) whereas addition of Pifithrin alpha (in presence of SB431542) increases the size of Scgb1a1-derived organoids. Addition of both ROCKi (in presence of SB431542) increases the colony forming efficiency of freshly isolated murine proximal total epithelial cells (isolated from the murine trachea).

airway epithelial cells = assay: In vitro clonogenic potential and colony-forming ability with Rho kinase inhibitor HA1077; type: cell-based; conditions: FIG. 11
Description: FIG. 11. […] P53 and ROCK regulate epithelial colony-forming ability and “stemness”. Tp53 (p53) is a tumor suppressor that is one of the most commonly mutated genes in cancer. In addition to its classical functions of regulating cell fate following cellular stress, p53 regulates migration, autophagy, metabolism, and tumor microenvironment signaling. p53 regulates self-renewal and terminal differentiation of both neural and mammary stem cells in vitro, and of hematopoietic and kidney stem/progenitor cells in vivo. In the Inventors' previous work the Inventors have shown that loss of p53 function promotes stem cell renewal in vivo and leads to a dramatic increase in colony-forming epithelial progenitor cells in vitro. The impact of p53 loss-of-function on airway epithelial in vitro colony-forming ability can be phenocopied by pharmacologic inhibition of Rho kinase (ROCK). Experiments proposed in the Inventors' application will use transient pharmacologic modulation of ROCK and p53 as tools to enhance survival and “sternness” of transplanted epithelial cells and overcome the need for co-transplanted structural lung cells for their efficient engraftment.

[2] = system: murine pre-cultured distal total epithelial cells; assay: 3D organoid culture of murine distal total epithelial cells pre-cultured 24 hrs on collagen coated plates; type: cell-based; conditions: pre-cultured on collagen coated plates for 24 hrs after isolation, +SB431542; dihydrochloride
Description: FIG. 4. Effect of pre-culturing—Day 3. Pre-culturing cells on collagen coated plates for 24 hrs after initial isolation increases the rate of organoid formation, with organoids being visible as early as day 3 in culture.
FIG. 5. Effect of pre-culturing—Day 8. Addition of Pifithrin α causes an increase in organoids size, while addition of ROCKi causes an increase in the colony forming efficiency. This effect is more pronounced when cells are pre-cultured for 24 hrs on collagen coated plates after initial isolation.
FIG. 14. Effect of inhibitors on murine pre-cultured distal total epithelial cells in (+SB431542). Addition Pifithrin alpha increases organoid size while addition of ROCKi increases the colony forming efficiency when murine distal total epithelial cells (isolated from the lung without trachea) are pre-cultured on collagen coated plates for 24 hrs prior after initial isolation. The effect on size is more pronounced when cells are precultured for 24 hrs on collagen coated plates after initial isolation. The drop in CFE in the Pifithrin alpha+ROCKi group is likely due space and nutrient availability constraints due to the large number of organoids per well.
(§3) ROCKi increases the colony forming efficiency when murine distal total epithelial cells (isolated from the lung without trachea) are pre-cultured on collagen coated plates for 24 hrs prior after initial isolation. The effect on size is more pronounced when cells are precultured for 24 hrs on collagen coated plates after initial isolation. The drop in CFE in the Pifithrin alpha+ROCKi group is likely due space and nutrient availability constraints due to the large number of organoids per well. Addition of both ROCKi and Pifithrin alpha (in presence of SB431542) increases the colony forming efficiency of freshly isolated alveolar type II cells (regional stem cells which maintain the epithelium of the air sacs in the lung). The effect is synergistic for their combined use, similar to that seen for total distal epithelial cells in the previous figures.

[3] = system: freshly isolated alveolar type II cells; assay: Organoid culture of lineage labelled murine alveolar type II cells; type: cell-based; conditions: GFP+ alveolar type II cells, in presence of SB431542
Description: FIG. 15. Effect of ROCK and P53 inhibition on lineage labelled murine alveolar type II cells. GFP^+ alveolar type II cells were isolated from tamoxifen treated SPC-CreER/ROSARG mice. Addition of both ROCKi and Pifithrin alpha (in presence of SB431542) increases the colony forming efficiency of freshly isolated alveolar typeII cells (regional stem cells which maintain the epithelium of the air sacs in the lung). The effect is synergistic for their combined use, similar to that seen for total distal epithelial cells in the previous figures.
as §3

[4] = system: freshly isolated club cells; assay: Organoid culture of lineage labelled murine club cells; type: cell-based; conditions: GFP+ club cells, in presence of SB431542
Description: FIG. 17. Effect of ROCK and P53 inhibition on lineage labelled murine club cells. GFP^+ club cells were isolated from tamoxifen treated Scgb1a1-CreER/ROSARG mice. Addition of ROCKi (in presence of SB431542) increases the colony forming efficiency of freshly isolated club cells (regional stem cells which maintain certain cell types in the bronchiolar epithelium) whereas addition of Pifithrin alpha (in presence of SB431542) increases the size of Scgb1a1-derived organoids.
as §2

[5] = system: freshly isolated murine proximal total epithelial cells; assay: Organoid culture of murine tracheal progenitor (basal) cells; type: cell-based
Experimental: FIG. 18. Effect of ROCK and P53 inhibition on murine tracheal progenitor (basal) cells. Addition of both ROCKi (in presence of SB431542) increases the colony forming efficiency of freshly isolated murine proximal total epithelial cells (isolated from the murine trachea).
as §2

freshly isolated cells = assay: Freshly isolated cells cultured with small molecules at different time points (proliferation); type: cell-based; conditions: different time points (FIG. 2)
Description: as §1
FIG. 2. Freshly isolated cells cultured with small molecules at different time points.

[6] = system: human bronchial epithelial stem cells; conditions: inhibition of ROCK1 and 2; cited from earlier work
[7] = system: Scgb1a1 immunoreactive cells; assay: Club cell ablation by gancyclovir in Scgb1a1-HSVtk transgenic mice; type: in vivo; conditions: 12.5 mg total delivered dose through miniosmotic pump, 7 days post-treatment
Experimental: FIG. 9. Orthotopic cell transplantation. Scgb1a1-HSVtk transgenic mice were exposed to gancyclovir delivered through miniosmotic pump and club cell ablation monitored by immunofluorescence. A dose of 12.5 mg gancyclovir (total delivered dose) led to >90% loss of Scgb1a1 immunoreactive cells 7 days post-treatment (red immunofluorescence in panel A). Total lung cells were isolated from ROSA-GFP mice and 1×10^6 cells transplanted into lungs of gancyclovir-treated mice that received i.t. chlodronate-containing liposomes for depletion of macrophages. Transplanted cells are shown in green in B and C, with cell type-specific markers shown by red immunofluorescence in C. Transplantation of 1×10^6 ROSA-mT lung cells (total cells following depletion of CD45+ fraction) into recipient lung tissue pre-conditioned by 6 Gy X-Rays led to efficient engraftment as shown by light sheet microscopy 2 weeks post transplant (D). The Inventors' initial efforts to develop a protocol for functional engraftment of transplanted epithelial stem cells involved sequential ablation of club cells through delivery of gancyclovir to Scgb1a1-HSVtk trangenic mice followed by delivery of liposome encapsulated chlodronate to deplete macrophages (FIG. 9A-C). […] Difficulties with this model were lack of translatability and poor survival of recipient mice. […]

Q: For NC(=O)c1ccc(-c2nc(-c3ccc4c(c3)OCO4)c(-c3ccccn3)[nH]2)cc1 [SB 431542], which “% colony forming efficiency” value [1] is on record?
A: increases

Q: What about the differentiation potential (distal progenitor cells) of the same compound?
A: did not alter

Q: Which results are given for O=S(=O)(c1cccc2cnccc12)N1CCCNCC1 [HA1077]?
A: colony-forming ability (airway epithelial cells): without altering; in vitro clonogenic potential (airway epithelial cells): increases

Q: Which results are given for C[C@@H](N)[C@H]1CC[C@H](C(=O)Nc2ccncc2)CC1.Cl.Cl [ROCKi, Y-27632 dihydrochloride]?
A: colony forming efficiency ([1]; freshly isolated cells, in presence of SB431542 (FIG. 13)): increases; survival and proliferation of the stem cells (inferred from CFE and organoid size) ([1]; freshly isolated distal cells, FIG. 13): increase survival; % colony forming efficiency [1]: increase; colony forming efficiency [2]: increase; colony forming efficiency [3]: increases; size of the alveolar organoids [3]: does not increase; colony forming efficiency [4]: increases; colony forming efficiency ([5]; cells isolated from the murine trachea, in presence of SB431542): increases; survival of proximal and distal progenitors (inferred from colony forming ability) ([5]; comparison of proximal and distal progenitor cell types, dihydrochloride): increase survival of both proximal and distal progenitors; also recorded: increases survival; differentiation potential (distal progenitor cells; dihydrochloride): did not alter; also recorded: do not alter; proliferation of cells (freshly isolated cells): have an effect on proliferation; survival and expansion of human bronchial epithelial stem cells [6]: promote survival and expansion

Q: For Nc1nc(O)c2ncn(COC(CO)CO)c2n1 [gancyclovir], which “loss of Scgb1a1 immunoreactive cells” value [7] is on record?
A: > 90%

From patent publication US20210147811A1, “METHODS FOR IN VITRO EXPANSION OF ADULT TISSUE STEM CELLS” (CEDARS-SINAI MEDICAL CENTER, priority 2018, published 2021)
